One block for each compound: values may come before it.
What was measured:
[1] = system: human eosinophils; test: Inhibition of histamine-induced eosinophil shape change (gated autofluorescence forward scatter assay); details: for effect on histamine-induced eosinophil shape change: human eosinophils, result in words
[2] = biological target: T1, human histamine H4 receptor (Homo sapiens, UniProt Q9H3N8); test: Binding assay on recombinant human histamine H4 receptor (3H-histamine displacement); details: competition binding with 3H-histamine; membranes of SK-N-MC or COS7 cells expressing human H4 receptor; Cheng-Prusoff, KD 5 nM, ligand 5 nM
T1 construct: expressed in transfected cells; host or cells: SK-N-MC cells or COS7 cells, transiently transfected; cell membranes used
Method in brief: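 Membranes from SK-N-MC or COS7 cells transiently transfected with human H4R, incubated with ^3H-histamine (5-70 nM) at room temperature for 45 min, nonspecific binding with 10,000 nM histamine. Filtration and scintillation counting; compound affinity from displacement of ^3H-ligand across varying concentrations.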

[3] = histamine 0 μM, HR antagonist 10 μM
[4] = histamine 0.01 μM, HR antagonist 10 μM or none
[5] = histamine 0.1 μM, HR antagonist 10 μM or none
[6] = histamine 1 μM, HR antagonist 10 μM or none
[7] = histamine 10 μM, HR antagonist 10 μM or none

SMILES: CNC(=C[N+](=O)[O-])NCCSCc1ccc(CN(C)C)o1 [ranatidine]
Fold Change (eosinophil shape change) [1, 3]: 1.00 | Fold Change (eosinophil shape change) [1, 4]: 1.04 | Fold Change (eosinophil shape change) [1, 5]: 1.21 | Fold Change (eosinophil shape change) [1, 6]: 1.49 | Fold Change (eosinophil shape change) [1, 7]: 1.64 | effect on histamine-induced eosinophil shape change [1]: did not alter the histamine-induced shape change

SMILES: NCCc1c[nH]cn1 [Histamine, histamine]
Fold Change (eosinophil shape change) [1, 4]: 1.01 | Fold Change (eosinophil shape change) [1, 5]: 1.21 | Fold Change (eosinophil shape change) [1, 6]: 1.31 | Fold Change (eosinophil shape change) [1, 7]: 1.34

SMILES: CN(C)CCOC(c1ccccc1)c1ccccc1 [diphenhydramine]
Fold Change (eosinophil shape change) [1, 3]: 1.00 | Fold Change (eosinophil shape change) [1, 4]: 1.03 | Fold Change (eosinophil shape change) [1, 5]: 1.18 | Fold Change (eosinophil shape change) [1, 6]: 1.50 | Fold Change (eosinophil shape change) [1, 7]: 1.63 | effect on histamine-induced eosinophil shape change [1]: did not alter the histamine-induced shape change

SMILES: Cc1cccc2[nH]c(-c3ccnc(OCCCCC4CCN(C)CC4)c3)nc12 [Example 146, 4-Methyl-2-{2-[4-(1-methyl-piperidin-4-yl)-butoxy]-pyridin-4-yl}-1H-benzoimidazole]
Ki [2]: 0.005 µM

SMILES: Cc1cc(C)c2nc(-c3ccnc(OCCCCN4CCN(C)CC4)c3)[nH]c2c1 [Example 138, 4,6-Dimethyl-2-{2-[4-(4-methyl-piperazin-1-yl)-butoxy]-pyridin-4-yl}-1H-benzoimidazole]
Ki [2]: 0.046 µM

SMILES: Cc1c(-c2nc3c(C)cc(Cl)cc3[nH]2)ccnc1OCCCCC1CCN(C)CC1 [Example 157, 6-Chloro-4-methyl-2-{3-methyl-2-[4-(1-methyl-piperidin-4-yl)-butoxy]-pyridin-4-yl}-1H-benzoimidazole]
Ki [2]: 0.028 µM

Other lines, results leading:

IC50 ([1]; Homo sapiens, Eosinophil, read-out: IC50, inhibition of histamine-induced eosinophil shape change): 0.27 µM
SMILES: CN1CCN(C(=O)c2cc3cc(Cl)ccc3[nH]2)CC1 [(5-chloro-1H-indol-2-yl)-(4-methyl-piperazin-1-yl)-methanone]

Ki [2]: 0.203 µM
SMILES: CN1CCN(CCCOc2cccc(-c3nc4ccccc4[nH]3)c2)CC1 [Example 55, 2-{3-[3-(4-Methyl-piperazin-1-yl)-propoxy]-phenyl}-1H-benzoimidazole]

Ki [2]: 0.022 µM
SMILES: Cc1c(F)ccc2[nH]c(-c3ccc(OCCCN4CCN(C)CC4)cc3Cl)nc12 [Example 74, 2-{2-Chloro-4-[3-(4-methyl-piperazin-1-yl)-propoxy]-phenyl}-5-fluoro-4-methyl-1H-benzoimidazole]

Ki [2]: 0.001 µM
SMILES: Cc1cc(OCCCC2CCN(C)CC2)ccc1-c1nc2cc(F)ccc2[nH]1 [Example 67, 5-Fluoro-2-{2-methyl-4-[3-(1-methyl-piperidin-4-yl)-propoxy]-phenyl}-1H-benzoimidazole]

Ki [2]: 0.101 µM
SMILES: CN1CCC(CCCOc2ccc(-c3nc4cc(C(C)(C)C)ccc4[nH]3)cc2Cl)CC1 [Example 58, 5-tert-Butyl-2-{3-chloro-4-[3-(1-methyl-piperidin-4-yl)-propoxy]-phenyl}-1H-benzoimidazole]

Ki [2]: 0.064 µM
SMILES: Cc1cc2[nH]c(-c3ccc(OCCCN4CCN(C)CC4)c(Cl)c3)nc2cc1Cl [Example 18, 5-Chloro-2-{3-chloro-4-[3-(4-methyl-piperazin-1-yl)-propoxy]-phenyl}-6-methyl-1H-benzoimidazole]
